Measured values published in US20010048946A1, “SOLID PHARMACEUTICAL DOSAGE FORMS IN FORM OF A PARTICULATE DISPERSION” (priority 1997, published 2001).

What was measured:
[1] = Dissolution testing, USP apparatus II, 900 mL medium, 37° C., 75 rpm; format: physicochemical; settings: 100 mg CI-991
Procedure: (0.1 M) Phosphate solution was prepared by dissolving a calculated amount of Na2HPO4 in USP water. The pH-value of the (0.1 M) phosphate solution was then adjusted to 8.0±0.02 by 85% phosphoric acid to give a pH 8 (0.1 M) phosphate buffer. An appropriate amount of SLS was added and dissolved in the pH 8 (0.1 M) phosphate buffer to give the pH 8 (0.1 M) phosphate buffer containing 0.5% (g/mL) SLS.
(0.05 M) Phosphate solution was prepared by mixing 1:1 ratio of the aqueous solutions of (0.025 M) Na2HPO4 and (0.025 M) K2HPO4. The pH value of the (0.05 M) phosphate solution was then adjusted to 9.0±0.02 by 85% phosphoric acid to give the pH 9 (0.05 M) phosphate buffer.
The dissolution studies were conducted in 900 mL of dissolution medium maintained at 37° C., using USP apparatus II (Distek 2100A dissolution system, North Brunswick, N.J.) at 75 rpm of paddle speed. After dispersing a sample containing 100 mg of CI-991 into the dissolution medium, about 10 mL of solutions were periodically sampled and filtered by Gelman Nylon Acrodisc 0.45 μm filters to give clear filtrates (discard the first 2 mL filtrate). The extent of the drug dissolved in the dissolution medium was determined by UV spectrometry at λ=284 nm. Interference by the excipients was not observed during analysis. Experiments were run in duplicate, and the results were averaged.

[2] = gastrointestinal pH range of 1.0 to 7.5; cited from earlier work
[3] = pH 8 (0.1 M) phosphate buffer containing 0.5% SLS

**Q.** With `Cc1c(C)c2c(c(C)c1O)CCC(C)(COc1ccc(CC3SC(=O)NC3=O)cc1)O2` (stereo not shown) [CI-991 Pure Drug, Troglitazone] as the compound, how does the “Percent of CI-991 Dissolved in Solution at 5 min” value [1, 3] read?
**A.** 3.9 ± 0.1%

**Q.** What about the “Percent of CI-991 Dissolved in Solution at 10 min” value [1, 3] of the same compound?
**A.** 6.3 ± 0.1%

**Q.** And the “Percent of CI-991 Dissolved in Solution at 15 min” value [1, 3]?
**A.** 8.2 ± 0.1%

**Q.** And the “Percent of CI-991 Dissolved in Solution at 5 min” value ([1]; pH 9 (0.05 M) phosphate buffer)?
**A.** 0.5 ± 0.1%

**Q.** What about the “Percent of CI-991 Dissolved in Solution at 10 min” value ([1]; pH 9 (0.05 M) phosphate buffer) of the same compound?
**A.** 0.4 ± 0.1%

**Q.** And the “Percent of CI-991 Dissolved in Solution at 15 min” value ([1]; pH 9 (0.05 M) phosphate buffer)?
**A.** 1.2 ± 0.2%

**Q.** And the “water solubility (in words)” value [2]?
**A.** practically water-insoluble
